ChEMBL document CHEMBL1147166, “Structure-activity relationships of methoctramine-related polyamines as muscarinic antagonist: effect of replacing the inner polymethylene chain with cyclic moieties” (Bioorg Med Chem, 2007)

Key:
Mus musculus [1] = assay: Antinociceptive activity in mouse assessed as licking latency at 0.3 ug, icv after 60 mins by hot plate method; format: functional
Mus musculus [2] = assay: Antinociceptive activity in mouse assessed as licking latency at 0.01 ug, icv after 45 mins by hot plate method; format: functional
Acetylcholinesterase = Acetylcholinesterase (Homo sapiens, UniProt P22303); assay: Inhibition of human erythrocyte recombinant AchE after 20 mins
Acetylcholinesterase, sequence (P22303 whole entry): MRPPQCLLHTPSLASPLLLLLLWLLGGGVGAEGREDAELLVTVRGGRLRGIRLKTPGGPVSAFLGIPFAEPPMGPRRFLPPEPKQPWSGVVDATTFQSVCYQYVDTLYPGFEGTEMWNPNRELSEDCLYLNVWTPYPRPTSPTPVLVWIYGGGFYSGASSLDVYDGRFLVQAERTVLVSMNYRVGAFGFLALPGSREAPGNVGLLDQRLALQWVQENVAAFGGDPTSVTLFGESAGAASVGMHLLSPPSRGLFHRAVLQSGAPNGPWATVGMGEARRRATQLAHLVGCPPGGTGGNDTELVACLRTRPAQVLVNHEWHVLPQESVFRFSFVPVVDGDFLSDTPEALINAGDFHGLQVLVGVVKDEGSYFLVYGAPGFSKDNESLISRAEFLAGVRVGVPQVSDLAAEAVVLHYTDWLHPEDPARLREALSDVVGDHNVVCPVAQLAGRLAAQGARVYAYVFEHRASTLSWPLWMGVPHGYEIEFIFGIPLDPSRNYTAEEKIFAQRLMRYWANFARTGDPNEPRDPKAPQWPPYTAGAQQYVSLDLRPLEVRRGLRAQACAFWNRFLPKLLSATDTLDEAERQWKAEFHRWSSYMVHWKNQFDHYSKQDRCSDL

Mus musculus [3] = assay: Antinociceptive activity in mouse assessed as licking latency at 10 ug, icv after 15 mins by hot plate method; format: functional
Mus musculus [4] = assay: Antinociceptive activity in mouse assessed as licking latency at 1.0 ug, icv after 60 mins by hot plate method; format: functional
Mus musculus [5] = assay: Antinociceptive activity in mouse assessed as licking latency at 10 ug, icv after 60 mins by hot plate method; format: functional
Mus musculus [6] = assay: Antinociceptive activity in mouse assessed as licking latency at 1.0 ug, icv after 30 mins by hot plate method; format: functional
Mus musculus [7] = assay: Antinociceptive activity in mouse assessed as licking latency at 0.1 ug, icv after 60 mins by hot plate method; format: functional
Mus musculus [8] = assay: Antinociceptive activity in mouse assessed as licking latency at 0.03 ug, icv after 45 mins by hot plate method; format: functional
Mus musculus [9] = assay: Antinociceptive activity in mouse assessed as licking latency at 0.1 ug, icv after 45 mins by hot plate method; format: functional
[10] = molecular target: T1, Muscarinic acetylcholine receptor M4 (Homo sapiens, UniProt P08173); assay: Displacement of [3H] N-methyl-scopolamine chloride from human muscarinic receptor M4 expressed in CHO cells; format: cell-based
T1 sequence (P08173 whole entry): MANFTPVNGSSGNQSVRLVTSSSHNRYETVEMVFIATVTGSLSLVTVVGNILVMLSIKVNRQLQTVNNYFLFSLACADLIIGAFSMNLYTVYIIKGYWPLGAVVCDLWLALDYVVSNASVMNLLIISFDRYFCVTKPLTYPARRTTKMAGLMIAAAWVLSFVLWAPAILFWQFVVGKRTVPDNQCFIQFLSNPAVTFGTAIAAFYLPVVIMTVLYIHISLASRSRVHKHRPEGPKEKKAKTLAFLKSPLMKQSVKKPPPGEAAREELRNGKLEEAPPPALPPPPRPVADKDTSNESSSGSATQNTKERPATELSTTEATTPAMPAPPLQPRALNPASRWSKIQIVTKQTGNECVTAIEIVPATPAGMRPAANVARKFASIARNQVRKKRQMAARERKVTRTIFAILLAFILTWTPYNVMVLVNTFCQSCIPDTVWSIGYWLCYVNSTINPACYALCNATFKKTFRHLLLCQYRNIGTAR

Mus musculus [11] = assay: Antinociceptive activity in mouse assessed as licking latency at 0.01 ug, icv after 30 mins by hot plate method; format: functional
Mus musculus [12] = assay: Antinociceptive activity in mouse assessed as licking latency at 10 ug, icv after 45 mins by hot plate method; format: functional
Mus musculus [13] = assay: Antinociceptive activity in mouse assessed as licking latency at 1.0 ug, icv after 15 mins by hot plate method; format: functional
[14] = molecular target: T2, Muscarinic acetylcholine receptor M4 (Homo sapiens) (UniProt P08173); assay: Antagonist potency at muscarinic receptor M4 in rabbit vas deferens; format: functional, tissue-based; settings: Oryctolagus cuniculus, target entry is the homologue from another species
T2 sequence (whole entry): T1 sequence (P08173 whole entry)

## COc1ccccc1CNCCCCCCN1CCC(CCC2CCN(CCCCCCNCc3ccccc3OC)CC2)CC1
Mus musculus [1]
  Time: 15.7 s
Mus musculus [2]
  Time: 18.6 s
Acetylcholinesterase
  IC50: 1290 nM
Mus musculus [3]
  Time: 13.3 s
Mus musculus [4]
  Time: 19.5 s
Mus musculus [5]
  Time: 18.3 s
Mus musculus [6]
  Time: 21.3 s
Mus musculus [7]
  Time: 18.6 s
Mus musculus [8]
  Time: 18.3 s
Mus musculus [9]
  Time: 22.1 s
[10]
  Ki: 40.7 nM
Mus musculus [11]
  Time: 17.1 s
Mus musculus [12]
  Time: 17.7 s
Mus musculus [13]
  Time: 19.3 s
[14]
  pKb: 5.56
